Source: patent US5656613A, “Treatment of hyperandrogenic conditions” (Merck & Co., Inc., priority 1995, dated 1997)
Like-named read-outs stand apart in the source and are kept apart here.

How the values were obtained:
[1] = target: T1, human type 2 5α-reductase (Homo sapiens, UniProt P31213); test: Structural requirements / inhibition constants and IC50 on type 2 enzyme (Examples 9 and 11); format: biochemical
T1 construct: host or cells: native human prostate tissue or recombinant from a baculovirus expression system; considered interchangeable
T1 sequence (P31213 1-254): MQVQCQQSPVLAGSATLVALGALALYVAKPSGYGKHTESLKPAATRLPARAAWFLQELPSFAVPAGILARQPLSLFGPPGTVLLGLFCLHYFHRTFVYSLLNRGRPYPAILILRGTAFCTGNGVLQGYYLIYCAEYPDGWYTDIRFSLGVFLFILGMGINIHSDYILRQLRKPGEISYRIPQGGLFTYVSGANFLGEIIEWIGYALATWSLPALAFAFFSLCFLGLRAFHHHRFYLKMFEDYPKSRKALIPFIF
Description: (§1) The human isozymes were employed exclusively in this research. The native isozymes were from scalp (type 1 ) or prostate (type 2) tissues, and the recombinant forms were produced by a baculovirus expression system. Except where specified, all data refer to the prostate (type 2) isozyme, the primary target of finasteride. All of the experiments described in this application were also conducted with the recombinant type 1 isozyme, either in parallel or for confirmation.
Permutations of three structural changes to finasteride were tested for their ability to abolish time-dependent inhibition. All compounds were tested at their apparent IC50 values at pH 5.5 and 37° C.
(§2) Following the procedures of Example 9, the compounds below were each tested with both human type 1 and type 2 enzyme.

[2] = target: T2, human type 1 5α-reductase (Homo sapiens, UniProt P18405); test: Inhibition of human type 1 enzyme (Example 11); format: biochemical; conditions: for IC50 / kon: Table 2, human type 1
T2 construct: made in house
T2 sequence (P18405 1-259): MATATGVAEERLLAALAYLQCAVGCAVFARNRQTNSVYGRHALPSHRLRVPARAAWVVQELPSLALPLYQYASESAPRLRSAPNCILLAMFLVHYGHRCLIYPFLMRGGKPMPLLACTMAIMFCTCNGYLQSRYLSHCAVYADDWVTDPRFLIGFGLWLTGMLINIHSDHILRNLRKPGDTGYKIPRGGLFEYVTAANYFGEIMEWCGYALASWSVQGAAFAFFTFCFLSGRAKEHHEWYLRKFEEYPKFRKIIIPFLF
Description: Permutations of three structural changes to finasteride were tested for their ability to abolish time-dependent inhibition. All compounds were tested at their apparent IC50 values at pH 5.5 and 37° C. Those displaying slow-binding inhibition are identified by kon values, which were determined as described for finasteride above. Those for which no time-dependent inhibition was found are identified by apparent Ki values.
as §2

[3] = comparison with NADP-dihydrofinasteride adduct; cited from earlier work
[4] = Nonenzymatic decomposition / stability of NADP-dihydrofinasteride adduct; format: physicochemical; conditions: for degraded at 0.235 µM: 0.1m mops, pH 7.2, 235 nM, 0.1M MOPS; for ability to dissociate to [^14 C]-dihydrofinasteride after oxidation: phenazine methosulfate / pyrazine methosulfate
Description: The integrity of the NADP-[^14 C]dihydrofinasteride adduct, defined as its ability to form [^14 C]-dihydrofinasteride, was measured by high pressure liquid chromatography on a reverse phase column (VYDAC, 4.6×250 mm, 300 Å, 5 micron, flow rate=1 mL/min) in 60% aqueous methanol. The retention time was about 14 minutes, and was consistently 1.4 min longer than that for [^3 H]finasteride, as determined by co-injection. […] The halflife for decomposition was ~1 min in 0.1M ammonium formate buffer at pH 4.00 and 100° C., and these conditions gave 88% conversion to [^14 C]-dihydrofinasteride at infinite time.
All lines of evidence point to the covalent adduct of inhibitor and cofactor. (1) The absorbance and fluorescence spectra resemble those of NAD(P)H, the NAD-pyruvate complex and analogs and the NAD-cyanide addition complex described by Kaplan, et al. (2) On heating, the compound decomposes to (^14 C)dihydrofinasteride with a rate constant of ~6×10^-4 s^-1 and halflife of 20 min in water at neutral pH and 100° C., explaining the recovery of dihydrofinasteride in the heat-denaturation experiments above. […] (4) Securing the identification, the most prominent parent ion peak in its mass spectrum had the correct charge/mass ratio of 1116 Da.
The rate constant for nonenzymatic breakdown of the covalent intermediate to NADP^+ and dihydrofinasteride was determined under the same conditions used for the enzyme kinetic constants. See Example 5. A constant kx =7.21+0.27×10^-7 s^-1 and a halflife of 11.1±0.4 days at pH 7.2 and 37° C. was calculated. The formation of [^14 C]dihydrofinasteride went to 75% completion at infinite lime, presumably due to competing side reactions like oxidation of the dihydropyridine ring.
The decay of the isolated complex to NADP+ and [^14 C]dihydrofinasteride was measured as a function of time to determine the rate constant for nonenzymatic decomposition of NADP-dihydrofinasteride. The complex (235 nM) was incubated in 0.1M MOPS, 0.1% BSA, and 1 mM EDTA at pH 7.2 and 37° C., and fractions were taken each day and stored at -75° C. These were later analyzed by reverse phase chromatography as described for the assay using a neutral isocratic system of 60% methanol, where [^14 C]dihydrofinasteride has a retention time of 14 min. The y-axis is expressed relative to the total ^14 C-label in each sample injected (2,410 dpm). The reaction went to 0.753 completion at infinite time, as determined by heating at 100° C. The results, as determined by nonlinear regression are consistent with first-order decay with a rate constant kx =7.21+0.27×10^-7 s^-1 and 0.754±0.015 conversion at infinite time as determined by nonlinear regression.

[5] = Partition of released polar component into chloroform; format: physicochemical; conditions: released by denaturation in guanidine hydrochloride
From the text: Eventually, it became evident that dihydrofinasteride is not the immediate product released upon denaturation of the enzyme-inhibitor complex. Several lines of evidence pointed to release of a much more polar [^3 H]-labeled component. Among these, it was disconcerting that recoveries of [^3 H]dihydrofinasteride on the reverse phase column were often only 35-45% of the radioactivity released from heat-denatured enzyme-inhibitor complex, the remainder never eluting (under acidic conditions). […] It is now clear that this polar intermediate accounts for most, or all, of the radioactivity released by any denaturation method, chromatographs anomalously, and is inadvertently converted to [^3 H]dihydrofinasteride during heat-denaturation.

[6] = target: T3, human 5α-reductase (prostate, type 2) (Homo sapiens, UniProt P31213); test: Inhibition of 5α-reductase by free NADP-dihydrofinasteride adduct; format: biochemical
T3 construct: host or cells: native human prostate tissue or recombinant from a baculovirus expression system; considered interchangeable
T3 sequence (P31213 1-254): T1 sequence (P31213 1-254)
Description: as §1

[7] = target: T4, human prostate (type 2) 5α-reductase (Homo sapiens, UniProt P31213); test: Steady-state enzyme kinetics of substrates; format: biochemical; design: native prostate enzyme considered interchangeable; conditions: pH 7.2, 37° C.
T4 sequence (P31213 1-254): T1 sequence (P31213 1-254)
From the text: The model applies in many aspects to both slow-binding, reversible inhibitors and to mechanism-based, irreversible ones.
When tissue extracts were the source of enzyme, the quenched reactions were clarified by centrifugation at 10,000×g before analysis.

[8] = target: T4, human prostate (type 2) 5α-reductase; conditions: read-out: Km for testosterone; native human prostate enzyme, neutral pH; Faller et al.; cited from earlier work
[9] = Table 1, pH 5.5, 37° C., no time-dependent inhibition, read-out: Ki (apparent)
[10] = Table 3, human type 2, read-out: kon

CC(C)(C)NC(=O)[C@H]1CC[C@H]2[C@@H]3CC[C@H]4NC(=O)CC[C@]4(C)[C@H]3CC[C@]12C [Compound 2]
Ki [1, 9]: 8 nM

COC(=O)[C@H]1CC[C@H]2[C@@H]3CC[C@H]4NC(=O)C=C[C@]4(C)[C@H]3CC[C@]12C [Compound 3]
kon ([1]; Table 1, pH 5.5, 37° C.): 0.85 10^5 × M^-1 s^-1

COC(=O)[C@H]1CC[C@H]2[C@@H]3CC[C@H]4N(C)C(=O)C=C[C@]4(C)[C@H]3CC[C@]12C [Compound 4]
Ki [1]: 960 nM

C[C@]12C=CC(=O)N[C@@H]1CC[C@@H]1[C@@H]2CC[C@]2(C)[C@@H](C(=O)C3CCCCC3)CC[C@@H]12 [Compound 5]
kon ([1]; Table 1, pH 5.5, 37° C.): 28.00 10^5 × M^-1 s^-1

C[C@]12CCC(=O)N[C@@H]1CC[C@@H]1[C@@H]2CC[C@]2(C)[C@@H](C(=O)C3CCCCC3)CC[C@@H]12 [Compound 6]
Ki [1, 9]: 0.3 nM

CN1C(=O)C=C[C@]2(C)[C@H]3CC[C@]4(C)[C@@H](C(=O)C5CCCCC5)CC[C@H]4[C@@H]3CC[C@@H]12 [Compound 7]
Ki [1, 9]: 13 nM

CN1C(=O)CC[C@]2(C)[C@H]3CC[C@]4(C)[C@@H](C(=O)C5CCCCC5)CC[C@H]4[C@@H]3CC[C@@H]12 [Compound 8]
Ki [1, 9]: 0.2 nM

C[C@]12C=CC(=O)N[C@@H]1CC[C@@H]1[C@@H]2CC[C@]2(C)[C@@H](C(=O)NC3C4CC5CC(C4)CC3C5)CC[C@@H]12 (some centres unmarked) [Compound 9]
kon ([1]; Table 1, pH 5.5, 37° C.): 47.00 10^5 × M^-1 s^-1

CN1C(=O)CC[C@]2(C)[C@H]3CC[C@]4(C)[C@@H](C(=O)NC5C6CC7CC(C6)CC5C7)CC[C@H]4[C@@H]3CC[C@@H]12 (some centres unmarked) [Compound 10]
Ki [1, 9]: 0.5 nM

CC1C[C@H]2NC(=O)C=C[C@]2(C)[C@H]2CC[C@]3(C)CC(Oc4ccc(Cl)cc4)C[C@H]3[C@H]12 (some centres unmarked) [Compound 11]
IC50 ([1]; Table 3, human type 2): > 10 µM | kon [1, 10]: 50 M⁻¹ s⁻¹ | selectivity for human 5α-reductase type 1 [2]: 3,300 | IC50 [2]: 8 nM | kon [2]: 170000 M⁻¹ s⁻¹

C[C@]12C=CC(=O)N[C@@H]1CC[C@@H]1[C@@H]2CC[C@]2(C)C(CCC(=O)Nc3ccncc3)CC[C@@H]12 (some centres unmarked) [Compound 12]
IC50 ([1]; Table 3, human type 2): 3.5 µM | kon [1, 10]: 140 M⁻¹ s⁻¹ | selectivity for human 5α-reductase type 1 [2]: 1,200 | IC50 [2]: 2.8 nM | kon [2]: 170000 M⁻¹ s⁻¹

C[C@]12C=CC(=O)N[C@@H]1CC[C@@H]1[C@@H]2CC[C@]2(C)C(CC#N)CC[C@@H]12 (some centres unmarked) [Compound 13]
IC50 ([1]; Table 3, human type 2): 8.4 µM | kon [1, 10]: 140 M⁻¹ s⁻¹ | selectivity for human 5α-reductase type 1 [2]: 1,200 | IC50 [2]: 3 nM | kon [2]: 180000 M⁻¹ s⁻¹

COC(C)C1CC[C@H]2[C@@H]3CC[C@H]4NC(=O)C=C[C@]4(C)[C@H]3CC[C@]12C (some centres unmarked) [Compound 14]
IC50 ([1]; Table 3, human type 2): 5.4 µM | kon [1, 10]: 130 M⁻¹ s⁻¹ | selectivity for human 5α-reductase type 1 [2]: 1,600 | IC50 [2]: 1.8 nM | kon [2]: 200000 M⁻¹ s⁻¹

NC(=O)C1=CN([C@@H]2O[C@H](COP(=O)(O)OP(=O)(O)OC[C@H]3O[C@@H](n4cnc5c(N)ncnc54)[C@H](O)[C@@H]3O)[C@@H](O)[C@H]2O)C=CC1CC(=O)C(=O)O (some centres unmarked) [NAD-pyruvate adduct]
stability [3]: so unstable as to preclude normal kinetic measurements

CC(C)(C)NC(=O)[C@H]1CC[C@H]2[C@@H]3CC[C@H]4NC(=O)C(C5C=CN([C@@H]6O[C@H](COP(=O)(O)OP(=O)(O)OC[C@H]7O[C@@H](n8cnc9c(N)ncnc98)[C@H](OP(=O)(O)O)[C@@H]7O)[C@@H](O)[C@H]6O)C=C5C(N)=O)C[C@]4(C)[C@H]3CC[C@]12C (some centres unmarked) [NADP-dihydrofinasteride adduct]
half-life ([4]; 0.1M ammonium formate, pH 4.00, 100° C., read-out: halflife for decomposition): ~1 min | degraded ([4]; 0.1m ammonium formate, pH 4, 0.1M ammonium formate, pH 4.00, 100° C., read-out: conversion to [^14 C]-dihydrofinasteride at infinite time): 88% | degraded at 0.235 µM ([4]; pH 7.2, 37° C., read-out: conversion at infinite time, by nonlinear regression): 75.4 ± 1.5% | degraded at 0.235 µM ([4]; pH 7.2, read-out: completion at infinite time, by heating at 100° C.): 75.3% | storage stability ([4]; ammonium bicarbonate buffer, pH 9, -75° C.): stable for months | stability relative to NAD-pyruvate counterpart ([4]; oxidation and dissociation): more stable to oxidation, and certainly to dissociation,than its NAD-pyruvate counterpart | rate constant kx for nonenzymatic breakdown to NADP^+ and dihydrofinasteride ([4]; pH 7.2, 37° C.): 7.21+0.27×10^-7 s^-1 | half-life ([4]; pH 7.2, 37° C., read-out: halflife of nonenzymatic breakdown (converted)): 16000 min | degraded ([4]; pH 7.2, pH 7.2, 37° C., read-out: completion of formation of [^14 C]dihydrofinasteride at infinite time): 75% | ability to dissociate to [^14 C]-dihydrofinasteride after oxidation ([4]; listed as NADP-[^14 C]dihydrofinasteride adduct): completely abolished the ability to dissociate to [^14 C]-dihydrofinasteride | ability to dissociate to [^14 C]-dihydrofinasteride after oxidation ([4]; listed as covalent adduct of inhibitor and cofactor): abolished by treatment with pyrazine methosulfate | rate constant of decomposition ([4]; water, neutral pH, 100° C.): ~ 6×10^-4 s^-1 | half-life ([4]; water, neutral pH, 100° C., read-out: halflife of decomposition): 20 min | radioactivity partitioning into chloroform [5]: < 5% | rate constant for release of adduct from competent enzyme ([6]; bounded by observed decay of enzyme-[^3 H]finasteride complex): ≤ 3e-07 s⁻¹ | rate constant for binding of adduct to free enzyme, k-3 ([6]; extrapolated to zero pyridine-nucleotide cofactor): ~ 1×10^6 M^-1 s^-1 | mode of inhibition ([6]; versus NADPH and testosterone): competitive with the first substrate (NADPH) and independent of saturating concentrations of the second (testosterone)

C[C@]12CC[C@H]3[C@@H](CCC4=CC(=O)CC[C@@]43C)[C@@H]1CC[C@@H]2O [testosterone]
kcat/Km [7]: 2.99±0.32×10^6 M^-1 s^-1 | turnover number kcat ([7]; by titration with finasteride): 0.075 ± 0.006 s⁻¹ | Km [8]: 20 ± 3 nM
